Data set [1] deals with T1, Pgp (Homo sapiens, UniProt P08183). As to the kind of experiment: Pgp ATPase activity (ATP-hydrolysis). The class given is biochemical. The settings on record: values >1 represent stimulation, values <1 represent inhibition. The protocol: (§1) Pgp ATPase stimulation activity was determined along with displacement of the prazosin analog, iodoarylazidoprazosin (^125IAAP). Ambudkar, S. V. Methods Enzymol 1998, 292: 504-514; Dey, S. et al. Methods Enzymol. 1998, 292: 318.
(§2) The effect of the homodimers of the present invention on ATPase activity and IAAP binding to Pgp are very potent. ATPase stimulation reaches a maximum at low concentration (1 μM) and steadily drops off as the concentration is increased (not shown). In contrast with the other homodimers, the X=5 compound slowly achieves maximum stimulation up to 50 μM and this level is maintained as the concentration increases. The other dimers are similar to the monomeric compounds where maximum stimulation is achieved and rapidly drops off as concentration increases. More surprising are the Pgp displacement of photoaffinity labeled substrate analog by the heterodimers. For example, with the heterodimer where X=12 is shown to bind tightly at 1.7 μM.

For data set [2], the target named is T1, Pgp. As to the kind of experiment: Inhibition of 125IAAP binding to Pgp (photoaffinity substrate displacement). How it is done: as §1, §2

T1 sequence (P08183 whole entry): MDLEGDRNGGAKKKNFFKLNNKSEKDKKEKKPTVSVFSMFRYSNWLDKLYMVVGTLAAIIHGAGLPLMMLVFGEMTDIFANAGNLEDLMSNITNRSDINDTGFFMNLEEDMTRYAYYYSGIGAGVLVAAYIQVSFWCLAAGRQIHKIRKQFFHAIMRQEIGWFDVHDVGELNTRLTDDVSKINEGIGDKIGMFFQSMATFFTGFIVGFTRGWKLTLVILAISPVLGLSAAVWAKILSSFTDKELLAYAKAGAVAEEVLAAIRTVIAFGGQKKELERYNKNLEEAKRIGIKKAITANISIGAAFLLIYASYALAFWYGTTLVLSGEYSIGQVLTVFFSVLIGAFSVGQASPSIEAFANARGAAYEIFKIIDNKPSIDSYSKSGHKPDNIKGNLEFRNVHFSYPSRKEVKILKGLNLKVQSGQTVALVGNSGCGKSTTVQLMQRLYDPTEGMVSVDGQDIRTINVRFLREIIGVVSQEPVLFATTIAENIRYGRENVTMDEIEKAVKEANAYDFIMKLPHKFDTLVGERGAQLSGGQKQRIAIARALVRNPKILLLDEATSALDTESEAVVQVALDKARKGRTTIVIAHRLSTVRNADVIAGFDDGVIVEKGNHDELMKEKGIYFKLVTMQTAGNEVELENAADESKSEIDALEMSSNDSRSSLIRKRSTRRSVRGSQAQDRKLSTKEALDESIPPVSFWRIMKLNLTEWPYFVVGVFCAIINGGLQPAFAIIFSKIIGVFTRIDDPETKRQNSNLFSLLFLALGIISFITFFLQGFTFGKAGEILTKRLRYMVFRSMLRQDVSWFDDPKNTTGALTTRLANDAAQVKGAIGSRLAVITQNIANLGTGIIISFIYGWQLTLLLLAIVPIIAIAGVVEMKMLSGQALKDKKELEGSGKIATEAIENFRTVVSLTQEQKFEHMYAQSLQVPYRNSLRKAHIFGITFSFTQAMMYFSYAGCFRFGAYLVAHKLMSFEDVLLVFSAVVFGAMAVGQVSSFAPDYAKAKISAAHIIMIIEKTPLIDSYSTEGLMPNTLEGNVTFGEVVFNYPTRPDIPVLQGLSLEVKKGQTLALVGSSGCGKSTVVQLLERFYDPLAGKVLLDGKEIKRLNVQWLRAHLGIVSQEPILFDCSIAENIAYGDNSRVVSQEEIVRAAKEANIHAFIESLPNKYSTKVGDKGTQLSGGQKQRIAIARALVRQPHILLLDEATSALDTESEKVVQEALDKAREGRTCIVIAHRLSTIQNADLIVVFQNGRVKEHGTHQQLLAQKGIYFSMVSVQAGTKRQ

Regarding `CC(=CCCC#CC=CC(C)C(O)C(C)=CCCc1ccc2ccccc2c1)C(=O)NCCOCCOCCOCCOCCOCCO` (centres unmarked) [compound 16], the ATPase activity on Pgp [1] is listed as 0.34 fraction of control. The Ki on Pgp [2] is 7.6 µM.

For orientation: Ki means the equilibrium dissociation constant of an inhibitor or competing ligand from its target. High values mean lower affinity, low ones higher affinity.

The record behind these values is patent publication US20030008922A1, “Multiple drug resistance reversal agent” (priority 2002, published 2003).
